Values of other authors, collected in patent US8551975B1, “Hyaluronic acid in soft gel form” (Soft Gel Technologies, Inc., priority 2001, dated 2013).

half-life in the epidermis (epidermis, endogenous HA): less than one day
half-life of an HA molecule (normally, endogenous HA synthesized and catabolized in tissues): 2-3 weeks
Substance: Hyaluronic Acid [HA]
